Laboratory results from PubChem BioAssay AID179 (DTP/NCI, 2004).
The source made the active and inactive calls.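 The calls were made as follows: active = compounds giving half or more protection of infected cells from virus-caused growth loss, again on retest; inactive = the rest.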 Where a SMILES comes first, the peptide text is derived from it. Bridges are numbered along the chain shown (N, C = ends). [ ]: non-standard residue; d: D form. The star is where a group is joined. Orn = NCCC[CH](N)C(=O)O; Cbz = O=C(OCc1ccccc1)*; NHNH2 = NN*

Test system: CEM cells HIV-1 protection, formazan growth assay
Experiment: NCI AIDS Antiviral Assay
Conditions: for IC50: measured here: growth of uninfected CEM cells
Procedure, shortened: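 CEM (human) cells, HIV-1 infected vs uninfected, 5-point dosing, formazan growth read-out. Retest threshold 50% protection.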

Structure (SMILES)	EC50	IC50	outcome
O=C([CH-]C(=O)c1ccccc1)c1ccccc1.[CH-]1CCCCC1.[CH-]1CCCCC1.[CH-]1CCCCC1.[Sn+4]	> 60.3 µM	–	–
O=C(O)c1cc(N=Nc2ccc(/C=C/c3ccc(N=Nc4ccc(O)c(C(=O)O)c4)cc3S(=O)(=O)O)c(S(=O)(=O)O)c2)ccc1O	22.4 µM	36.3 µM	–
CC(=O)N1CCOC12N=NC(C)(C)O2 (stereo not given)	> 200 µM	> 200 µM	–
COC1/C=C\C=C(/C)C(=O)NC2=CC(=O)C(NC3CC3)=C(CC(C)CC(OC)C(O)C(C)/C=C(/C)C1OC(N)=O)C2=O (stereo not given)	–	–	inactive
N#Cc1c(=O)c2ccccc2n2c1[nH]c1ccccc12	> 200 µM	77.6 µM	–
COc1cccc2c(Nc3ccc(S(=O)(=O)N=C(N)N)cc3)c3ccc([N+](=O)[O-])cc3nc12	> 200 µM	11 µM	–
CC1=CC(C)(C)NN1C1=NS(=O)(=O)c2ccccc2N1C	> 200 µM	> 200 µM	–
CCOC(=O)CSCn1ncc2ccc([N+](=O)[O-])cc21	–	–	inactive
CC(C)(C)OC(=O)N1N=CCC1c1ccccc1 (stereo not given)	> 200 µM	> 200 µM	–
COc1ccc(N(C)CN(C)c2nc(N(C)C)nc(N(C)C)n2)cc1	> 200 µM	36.3 µM	–
CN1c2ccccc2N(C(=O)c2ccccc2)C(CC(=O)O)c2cccn21 (stereo not given)	> 692 µM	288 µM	–
Nc1[nH]c(=O)nc(Nc2ccc(Cl)c(Cl)c2)c1N=O	> 200 µM	13.5 µM	–
CCc1ccccc1NC(=O)CCc1n[nH]c(=S)o1	44.7 µM	67.6 µM	–
Nc1ccc2oc3cccnc3c2c1	> 977 µM	372 µM	–
COc1cc(CC2C(=O)OCC2C(=O)c2ccc3c(c2)OCO3)cc(OC)c1OC (stereo not given)	> 40.7 µM	> 40.7 µM	–
Oc1ccc(O)c2c1N=NC21c2ccccc2Oc2ccccc21	> 112 µM	33.1 µM	–
NC(=S)C(=S)N=Cc1c(N)[nH]n(-c2ccccc2)c1=O	> 120 µM	70.8 µM	–

Structure (SMILES)	EC50	IC50	outcome
O=c1[nH]c(=O)n(C2OC(CO)C(O)C2O)c2ccsc12 (stereo not given)	> 200 µM	> 200 µM	–
Cc1cnc(SCCN(C)C)nc1-c1cccs1	> 891 µM	22.4 µM	–
CC(C)(C)NC(=O)C12C3C4C1C1C2C3C41I (stereo not given)	> 100 µM	> 100 µM	–
CSc1c(C#N)c(O)n(-c2ccc(Cl)cc2)c(=O)c1C#N	> 200 µM	33.1 µM	–
NNC(=O)C(CCC(=O)O)NC(=O)C(CCC(=O)O)NC(=O)C(CCC(=O)O)NC(=O)CNC(=O)CNC(=O)OCc1ccccc1 (stereo not given) (Cbz-GGEEE-NHNH2; configuration not given here)	> 200 µM	> 200 µM	–
NC(=O)C1CCCNC(=O)CC(NC(=O)C(N)Cc2ccc(O)cc2)C(=O)NC(Cc2ccccc2)C(=O)N1 (stereo not given) (H-YDF[Orn]-NH2; lactam 2-4; configuration not given here)	> 100 µM	> 100 µM	–
O=C(c1no[n+]([O-])c1C(=O)c1csc2ccccc12)c1csc2ccccc12	> 200 µM	1.05 µM	–
c1ccc2c(c1)Nc1nc3nonc3nc1N2	> 200 µM	> 200 µM	–
N#Cc1c2c(cn3c1nc1ccccc13)Cc1ccccc1-2	> 200 µM	> 200 µM	–
Oc1ccc(Nc2ccccc2)cc1	> 141 µM	24.5 µM	–
COc1ccc2[nH]c3c(c2c1)C(=O)c1ccncc1C3=O	> 20 µM	1.2 µM	–
O=C(CSC(=S)N1CCOCC1)Nc1nc2c(s1)CCCC2	> 72.4 µM	61.7 µM	–
C=CCOc1cc2c(cc1C(C)c1ccc(OC)cc1)OCO2 (stereo not given)	> 32.4 µM	0.708 µM	–
O=C1CC(=O)N(c2ccccc2)N1/C(=C/c1ccccc1)c1ccccc1	> 200 µM	9.33 µM	–
COC(=O)c1ccc(Cc2cc(Cc3ccc(C(=O)OC)cc3)cc(Cc3ccc(C(=O)OC)cc3)c2)cc1	> 25.1 µM	> 25.1 µM	–
O=C1NC(=O)c2c3ccc(c21)CCc1ccc(c2c1C(=O)NC2=O)CC3	> 15.1 µM	> 15.1 µM	–
O=C(Cn1c(=O)oc2ccc(C(=O)c3ccc(F)cc3)cc21)c1ccc([N+](=O)[O-])cc1	> 200 µM	25.1 µM	–
